# Biological target: T1, SARM1 (50-724) (Homo sapiens, UniProt Q6SZW1)
# T1 construct: Purified SARM1 (50-724) with a final concentration of 2 nM
# T1 sequence (Q6SZW1 50-724): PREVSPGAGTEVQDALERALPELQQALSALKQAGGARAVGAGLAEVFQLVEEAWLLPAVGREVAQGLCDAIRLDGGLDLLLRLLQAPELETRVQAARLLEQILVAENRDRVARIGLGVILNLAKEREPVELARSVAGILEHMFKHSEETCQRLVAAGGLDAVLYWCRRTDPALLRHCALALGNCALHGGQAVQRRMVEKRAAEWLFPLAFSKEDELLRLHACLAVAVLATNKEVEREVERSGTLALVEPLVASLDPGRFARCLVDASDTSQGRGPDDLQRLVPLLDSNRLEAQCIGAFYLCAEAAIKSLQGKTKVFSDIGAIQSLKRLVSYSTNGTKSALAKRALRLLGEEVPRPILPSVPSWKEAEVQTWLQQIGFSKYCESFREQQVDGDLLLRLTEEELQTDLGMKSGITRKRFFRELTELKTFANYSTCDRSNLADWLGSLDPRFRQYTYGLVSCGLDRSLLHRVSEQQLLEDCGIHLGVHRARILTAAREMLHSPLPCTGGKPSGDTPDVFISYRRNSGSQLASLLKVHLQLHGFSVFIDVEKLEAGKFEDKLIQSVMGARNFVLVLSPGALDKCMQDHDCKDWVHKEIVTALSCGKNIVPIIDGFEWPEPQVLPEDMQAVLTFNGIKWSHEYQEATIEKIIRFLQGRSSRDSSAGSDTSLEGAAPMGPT
# Assay: SARM1 (50-724) enzymatic assay (NMN-activated NAD+ hydrolysis, LC-MS/MS readout)
# Type: biochemical
# Settings: purified SARM1 (50-724) 2 nM, 200 μM NMN activator, 100 μM NAD+ substrate, 1 h at room temperature, read-out: IC50 (SARM1 inhibitory activity)
# Experimental: Example II. SARM1 (50-724) Enzymatic Assay
# An enzymatic assay was performed in a 384-well plate using Dulbecco's phosphate-buffered saline (PBS) as the reaction buffer. Purified SARM1 (50-724) with a final concentration of 2 nM was pre-incubated with a test compound at 1% DMSO final assay concentration for 15 min at room temperature. The reaction was initiated by adding a mixture of 200 μM nicotinamide mononucleotide (NMN) as activator and 100 μM NAD^+ as substrate. After 1 h of incubation at room temperature, the reaction was terminated with 10 times volume of 70% acetonitrile, then centrifuged at 3800 rpm for 10 min. The samples were analyzed using LC-MS/MS after diluted to a proper concentration by 10 mM ammonium acetate (pH 9.75).
# ND means “not determined.”
row,IC50,Compound
1,≥ 1000 nM,"CNCCN(C(=O)c1nc2cc(C)ccc2[nH]1)C1CCCC1 [Compound 63, N-cyclopentyl-5-methyl-N-(2-(methylamino)ethyl)-1H-benzo[d]imidazol-2-carboxamide]"
2,≥ 1000 nM,"Cc1cccc2[nH]c(C(=O)N(C)C3CCCC3)c(CO)c12 [Compound 21, N-cyclopenty1-3-(hydroxymethyl)-N,4-dimethyl-1H-indole-2-carboxamide]"
3,101 to 500 nM,"N#Cc1cc(Cl)c(Cl)c(N(CCO)C(=O)c2nc3cc(C(F)(F)F)ccc3[nH]2)c1 [Compound 109, N-(2,3-dichloro-5-cyanophenyl)-N-(2-hydroxyethyl)-5-(trifluoromethyl)-1H-benzo[d]imidazole-2-carboxamide]"
4,≤ 100 nM,"CC1(CN(C(=O)c2nc3cc(C(F)(F)F)ccc3[nH]2)c2cccc(Cl)c2Cl)COC1 [Compound 181, N-(2,3-dichlorophenyl)-N-((3-methyloxetan-3-yl)methyl)-5-(trifluoromethyl)-1H-benzo[d]imidazole-2-carboxamide]"
5,≤ 100 nM,"Cc1ccc2[nH]c(C(=O)N(CCO)c3cccc(Cl)c3Cl)nc2c1 [Compound 98, N-(2,3-dichlorophenyl)-N-(2-hydroxyethyl)-5-methyl-1H-benzo[d]imidazole-2-carboxamide]"
6,≤ 100 nM,"O=C(c1nc2cc(C(F)(F)F)ccc2[nH]1)N(CC(F)(F)CO)c1ccc(F)c(F)c1Cl [Compound 212, N-(2-chloro-3,4-difluorophenyl)-N-(2,2-difluoro-3-hydroxypropyl)-5-(trifluoromethyl)-1H-benzo[d]imidazole-2-carboxamide]"
7,≥ 1000 nM,"Cc1ccc2[nH]c(C(=O)N(C)c3cccc(Cl)c3)c(CO)c2c1 [Compound 24, N-(3-chlorophenyl)-3-(hydroxymethyl)-N,5-dimethyl-1H-indole-2-carboxamide]"
8,≤ 100 nM,CC(C)(C#N)c1ccc2[nH]c(C(=O)N(CC(F)(F)CO)c3ccc(F)c(F)c3Cl)nc2c1 [Compound 208]
9,≤ 100 nM,"Cc1ccc2[nH]c(C(=O)N(C)c3cccc(Cl)c3Cl)c(CNc3nccs3)c2c1 [Compound 79, N-(2,3-dichlorophenyl)-N,5-dimethyl-3-((thiazol-2-ylamino)methyl)-1H-indole-2-carboxamide]"
10,≥ 1000 nM,"COc1cc2[nH]c(C(=O)N(C)C3CCCC3)c(CO)c2cc1OC [Compound 30, N-cyclopentyl-3-(hydroxymethyl)-5,6-dimethoxy-N-methyl-1H-indole-2-carboxamide]"
11,101 to 500 nM,Cc1ccc2[nH]c(C(=O)N(CCO)c3cccc(Cl)c3Cl)nc2c1-c1cc[nH]c(=O)c1 [Compound 164]
12,≤ 100 nM,"Cc1ccc2[nH]c(C(=O)N(C)C3CCCC3)c(CNc3ncco3)c2c1 [Compound 80, N-cyclopentyl-N,5-dimethyl-3-((oxazol-2-ylamino)methyl)-1H-indole-2-carboxamide]"
13,≤ 100 nM,COC(=O)C(C)(C)c1ccc2[nH]c(C(=O)N(CC3(F)COC3)c3cccc(Cl)c3Cl)nc2c1 [Compound 204]
14,≤ 100 nM,"Cc1c(Cl)cncc1N(CC(F)(F)CO)C(=O)c1nc2cc(C(F)(F)F)ccc2[nH]1 [Compound 133, N-(5-chloro-4-methylpyridin-3-yl)-N-(2,2-difluoro-3-hydroxypropyl)-5-(trifluoromethyl)-1H-benzo[d]imidazole-2-carboxamide]"
15,≥ 1000 nM,Cc1cn[nH]c1-c1ccc2[nH]c(C(=O)N(CC3COC3)c3cccc(Cl)c3Cl)nc2c1 [Compound 124]
16,501 to 1000 nM,"Cc1ccc2[nH]c(C(=O)N(C)C3CCCC3)c(CC(N)=O)c2c1 [Compound 16, 3-(2-amino-2-oxoethyl)-N-cyclopentyl-N,5-dimethyl-1H-indole-2-carboxamide]"
17,≤ 100 nM,O=C(c1nc2cc(C(F)(F)F)cc(F)c2[nH]1)N(CCO)c1cccc(Cl)c1Cl [Compound 206]
18,≤ 100 nM,"Cc1ccc(Cl)c(N(C)C(=O)c2nc3cc(C(F)(F)F)ccc3[nH]2)c1Cl [Compound 152, N-(2,6-dichloro-3-methylphenyl)-N-methyl-5-(trifluoromethyl)-1H-benzo[d]imidazole-2-carboxamide]"

row,IC50,Compound
1,≥ 1000 nM,"Cc1ccc2[nH]c(C(=O)N(C)c3ccccc3C#N)c(CO)c2c1 [Compound 7, N-(2-cyanophenyl)-3-(hydroxymethyl)-N,5-dimethyl-1H-indole-2-carboxamide]"
2,≤ 100 nM,"O=C(c1nc2cc(C(F)(F)F)ccc2[nH]1)N(CC1CC(O)C1)c1cccc(Cl)c1Cl (stereo not drawn) [Compound 177, N-(2,3-dichlorophenyl)-N-((3-hydroxycyclobutyl)methyl)-5-(trifluoromethyl)-1H-benzo[d]imidazole-2-carboxamide]"
3,≥ 1000 nM,"Cc1ccc2[nH]c(C(=O)N(C)C3CCCC3)c(CN)c2c1 [Compound 68, 3-(aminomethyl)-N-cyclopentyl-N,5-dimethyl-1H-indole-2-carboxamide]"
4,101 to 500 nM,"O=C(c1nc2cc(C(F)(F)F)ccc2[nH]1)N(CCN1CCOCC1)c1cccc(F)c1Cl [Compound 214, N-(2-chloro-3-fluorophenyl)-N-(2-morpholinoethyl)-5-(trifluoromethyl)-1H-benzo[d]imidazole-2-carboxamide]"
5,≤ 100 nM,"CN(C(=O)c1nc2cc(C(F)(F)F)ccc2[nH]1)c1cc(F)cc(Cl)c1Cl [Compound 120, N-(2,3-dichloro-5-fluorophenyl)-N-methyl-5-(trifluoromethyl)-1H-benzo[d]imidazole-2-carboxamido]"
6,≤ 100 nM,"NC(=O)CN(C(=O)c1nc2cc(C(F)(F)F)ccc2[nH]1)c1cccc(Cl)c1Cl [Compound 141, N-(2-amino-2-oxoethyl)-N-(2,3-dichlorophenyl)-5-(trifluoromethyl)-1H-benzo[d]imidazole-2-carboxamide]"
7,≤ 100 nM,"O=C(c1nc2cc(C(F)(F)F)ccc2[nH]1)N(CC1CC(O)C1)c1cccc(F)c1Cl (stereo not drawn) [Compound 194, N-(2-chloro-3-fluorophenyl)-N-((3-hydroxycyclobutyl)methyl)-5-(trifluoromethyl)-1H-benzo[d]imidazole-2-carboxamide]"
8,101 to 500 nM,Cc1csc(-c2ccc3[nH]c(C(=O)N(CCO)c4cccc(Cl)c4Cl)nc3c2)n1 [Compound 153]
9,≥ 1000 nM,"Cc1ccc2[nH]c(C(=O)N(C)c3cc(F)cc(F)c3)c(CO)c2c1 [Compound 19, N-(3,5-difluorophenyl)-3-(hydroxymethyl)-N,5-dimethyl-1H-indole-2-carboxamide]"
10,≤ 100 nM,O=C(c1nc2cc(C3CC3)ccc2[nH]1)N(CC(F)(F)CO)c1cccc(F)c1Cl [Compound 210]
11,≤ 100 nM,"O=C(c1nc2cc(C(F)(F)F)ccc2[nH]1)N(CCO)c1cccc(Cl)c1Cl [Compound 103, N-(2,3-dichlorophenyl)-(2-hydroxyethyl)-5-(trifluoromethyl)-1H-benzo[d]imidazole-2-carboxamide]"
12,≥ 1000 nM,"Cc1ccc2[nH]c(C(=O)NC3CCCC3)c(CO)c2c1 [Compound 26, N-cyclopenty1-3-(hydroxymethyl)-5-methyl-1H-indole-2-carboxamide]"
13,≥ 1000 nM,"COc1ccc2c(CO)c(C(=O)N(C)C3CCCC3)[nH]c2c1 [Compound 29, N-cyclopentyl-3-(hydroxymethyl)-6-methoxy-N-methyl-1H-indole-2-carboxamide]"
14,≤ 100 nM,"O=C(c1nc2cc(C(F)(F)F)ccc2[nH]1)N(CC(F)(F)CO)c1cccc(Cl)c1Cl [Compound 112, N-(2,3-dichlorophenyl)-N-(2,2-difluoro-3-hydroxypropyl)-5-(trifluoromethyl)-1H-benzo[d]imidazole-2-carboxamide]"
15,≥ 1000 nM,"Cc1ccc2[nH]c(C(=O)N(C)C3CCCC3)c(CNc3cn[nH]c3)c2c1 [Compound 81, 3-(((1H-pyrazol-4-yl)amino)methyl)-N-cyclopentyl-N,5-dimethyl-1H-indole-2-carboxamide]"
16,≤ 100 nM,"Cc1ccc2[nH]c(C(=O)N(C)c3cccc(Cl)c3Cl)c(CO)c2c1 [Compound 1, N-(2,3-dichlorophenyl)-3-(hydroxymethyl)-N,5-dimethyl-1H-indole-2-carboxamide]"
17,≥ 1000 nM,"O=C(c1nc2cc(C(F)(F)F)ccc2[nH]1)N(c1cccc(Cl)c1Cl)C1CNC1 [Compound 117, N-(azetidin-3-yl)-N-(2,3-dichlorophenyl)-5-(trifluoromethyl)-1H-benzo[d]imidazole-2-carboxamide]"
18,≤ 100 nM,"CNC(=O)CN(C(=O)c1nc2cc(C(F)(F)F)ccc2[nH]1)c1cccc(Cl)c1Cl [Compound 182, N-(2,3-dichlorophenyl)-N-(2-(methylamino)-2-oxoethyl)-5-(trifluoromethyl)-1H-benzo[d]imidazole-2-carboxamide]"

# — patent US20260265195A1, “SARM1 MODULATORS, PREPARATIONS, AND USES THEREOF” (SIRONAX LTD, priority 2022, published 2026)
